From patent US11744815B1, “Pharmaceutical composition of dimethylguanidino valeric acid and plant flavonoids for treating chronic inflammatory diseases and cancer” (priority 2022, dated 2023)
“Also recorded” adds a separate entry of the source.

Experiments:
AGXT2^−/− T cells = assay: ROS induction in AGXT2-KO T cells; type: cell-based, mice; details: ADMA 10 μM, SDMA 10 μM, DMGV (504)
Description: DMGV is converted from asymmetric dimethylarginine (ADMA) or symmetric dimethylarginine (SDMA) by alanine-glyoxylate aminotransferase 2 (AGXT2) in the mitochondria whereas ADMA or SDMA is metabolized to L-citrulline in the cytosol as shown in FIG. 6A. In order to investigate the role of DMGV in T cells, we generated AGXT2-KO (AGXT2^−/−) mice using Crispr/Cas9 technology according to FIG. 6B. Neither ADMA (10 μM) or SDMA (10 μM) induce ROS in AGXT2^−/− T cells but DMGV (504) still does, an evidence that SDMA or ADMA induces ROS only when they are converted to DMGV (FIG. 6C).

human T cells = assay: Human T cell survival by flow cytometry after 4 days; type: cell-based
Jurkat T cells = assay: Mitochondrial ROS by flow cytometry using CellROX Green, Jurkat T cells; type: cell-based, human; details: for induction of ROS: Jurkat T cells, kaempferol 5 μM, quercetin 25 μM, daidzein 5 μM
Description: The invention further investigated how DMGV suppresses cell proliferation and survival.
In order to locate the cellular compartment of ROS generated by DMGV, Jurkat T cells were incubated with the mitochondria-specific ROS inhibitor MitoQ (100 nM) for 15 min before stimulation with DMGV (504) for ROS measurement.
(§1) As certain flavonoids are known to active MCU, we tested whether DMGV and the flavonoids activate MCU in the same manner. Jurkat T cells were treated with the flavonoids [kaempferol (5 μM), quercetin (25 μM), or daidzein (5 μM)]. […] The molecular docking simulator SwissDock predicted that the flavonoids and DMGV bind to MCU in a same pocket.

[1] = test system: AGXT2^+/+ and AGXT2^−/− T cells; assay: Survival of AGXT2^+/+ and AGXT2^−/− T cells, 4 days, flow cytometry; type: cell-based, mice; details: MitoQ 100 nM with DMGV 504, 4 days
Description: To investigate the role of AGXT2 and DMGV in T cell survival, AGXT2^+/+ and AGXT2^−/− T cells were stimulated with the indicated compounds (ADMA: 10 μM, SDMA: 10 μM, DMGV: 504, MitoQ: 100 nM) for 4 days and the survival rate was measured by flow cytometry.

T cell = assay: ROS induction and T cell proliferation with selective iNOS inhibitor; type: cell-based
MCU = target: T1, MCU (Homo sapiens, UniProt Q8NE86); assay: Mitochondrial calcium influx in Jurkat cells expressing Mito-GEM-GECO; type: cell-based; details: for induction of mitochondrial calcium: Jurkat T cells, kaempferol 5 μM, quercetin 25 μM, daidzein 5 μM
T1 construct: endogenous in cells; host or cells: Jurkat T cells
T1 sequence (Q8NE86 51-351): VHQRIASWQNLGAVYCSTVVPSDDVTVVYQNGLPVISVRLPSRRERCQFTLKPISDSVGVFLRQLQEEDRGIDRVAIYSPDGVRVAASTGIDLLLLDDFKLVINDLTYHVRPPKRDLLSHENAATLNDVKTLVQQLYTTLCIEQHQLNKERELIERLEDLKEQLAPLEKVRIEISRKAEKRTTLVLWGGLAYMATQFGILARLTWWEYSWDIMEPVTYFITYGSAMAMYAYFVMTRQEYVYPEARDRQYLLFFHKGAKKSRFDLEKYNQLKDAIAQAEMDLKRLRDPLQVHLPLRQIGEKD
T1 sequence (Q9H4I9 48-107 partner limits assumed): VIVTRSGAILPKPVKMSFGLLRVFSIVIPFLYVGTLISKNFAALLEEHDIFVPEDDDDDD
Description: (§2) As a sudden influx of calcium to the mitochondria can cause ROS induction, we tested whether DMGV regulates calcium flux to induce ROS. Calcium flux was measured by flow cytometry using the calcium indicator Fluo-8. While stimulation of T cell receptor (TCR) by a stimulatory antibody triggered calcium release from ER (efflux), which in turn induced calcium influx from the outside to cytosol (influx). […] Because of the close proximity between ER and mitochondria, calcium efflux from ER leads to calcium import to the mitochondria, which can be mediated by MCU.
as §1

[2] = test system: MCU mutants deleted of Ile127, V135, or Ile127 and V135; assay: MCU deletion mutants transfected to MCU KO cells; type: cell-based; details: for dependence of MCU activation on Ile127: MCU mutant deleted of Ile127 in MCU KO cells; for dependence of MCU activation on V135: MCU mutant deleted of V135 in MCU KO cells
Description: To test whether Ile127 and V135 are important for these compounds to activate MCU, we generated 3 different MCU mutants deleted of Ile127, V135, or Ile127 and V135. These MCU mutants were transfected to MCU KO cells and stimulated with kaempferol, daidzein, quercetin, or DMGV.

calcium flux = assay: Calcium flux by flow cytometry using Fluo-8; type: cell-based; details: Ru360
Description: as §2

For CN(C)C(N)=NCCC[C@H](N)C(=O)O [ADMA, asymmetric dimethylarginine], which “ROS induction in AGXT2^−/− T cells” value (AGXT2^−/− T cells) is on record?
The value was “do not induce ROS”.

With COC1=C(OC)C(=O)C(CCCCCCCCCC[P+](c2ccccc2)(c2ccccc2)c2ccccc2)=C(C)C1=O [MitoQ, reference compound] as the compound, how does the “effect on DMGV-induced T cell death” value (human T cells; human T cells, DMGV with or without MitoQ, 4 days) read?
Its value is “rescued T cells from DMGV-induced cell death”.

And the “effect on DMGV-induced ROS production” value (Jurkat T cells; MitoQ (100 nM) 15 min before stimulation with DMGV (504))?
The value was “completely inhibited ROS production”.

And the “effect on DMGV-induced inhibition of AGXT2^+/+ T cells” value [1]?
Its value is “rescued AGXT2^+/+ T cells from DMGV-induced inhibition”.

What about the “effect on DMGV-induced rescue of AGXT2^−/− T cells” value [1] of the same compound?
Its value is “inhibited DMGV-induced rescue of AGXT2^−/− T cells”.

What does the source list for CC(=N)NCCCC[C@H](N)C(=O)O [N6-(1-iminoethyl)-L-lysine]?
ROS induction (T cell): does not induce ROS; T cell proliferation (T cell): does not induce ROS or inhibit T cell proliferation

Which “ROS induction in AGXT2^−/− T cells” value (AGXT2^−/− T cells) does the source give for CN=C(NC)NCCC[C@H](N)C(=O)O [SDMA, symmetric dimethylarginine] here?
The value was “do not induce ROS”.

How did the “induction of mitochondrial calcium” value (MCU) turn out when O=c1c(-c2ccc(O)cc2)coc2cc(O)ccc12 [daidzein, 7-hydroxy-3-(4-hydroxyphenyl)-4H-chromen-4-one] was run?
Its value is “induced mitochondrial calcium”.

And the “dependence of MCU activation on Ile127” value [2]?
The value was “independent on it”.

What about the “dependence of MCU activation on V135” value [2] of the same compound?
Its value is “mostly dependent on V135”.

And the “induction of ROS” value (Jurkat T cells)?
Its value is “induced mitochondrial calcium as wells ROS”.

O=c1c(O)c(-c2ccc(O)cc2)oc2cc(O)cc(O)c12 [kaempferol, 3,5,7-Trihydroxy-2-(4-hydroxyphenyl)-4H-chromen-4-one] was tested. Which “induction of mitochondrial calcium” value (MCU) did it give?
Its value is “induced mitochondrial calcium”.

What about the “dependence of MCU activation on Ile127” value [2] of the same compound?
Its value is “independent on it”.

And the “dependence of MCU activation on V135” value [2]?
Its value is “totally dependent on it; also recorded: mostly dependent on V135”.

What about the “survival of activated human T cells” value (human T cells; activated human T cells) of the same compound?
Its value is “suppressed survival of activated human T cells via mitochondrial ROS”.

And the “induction of ROS” value (Jurkat T cells)?
Its value is “induced mitochondrial calcium as wells ROS”.

Which results are given for Ru360 [reference compound]?
effect on DMGV-induced calcium influx to the mitochondria (MCU; Ru360 (104)): completely inhibited; effect on TCR-induced calcium flux (calcium flux): not affected
